Patent publication US5932483A, “Synthetic peptide and its uses” (Northwestern University, priority 1996, dated 1999)

Legend:
[1] = tested on: binding of rabbit Ig-HRP by solid phase Protein A; assay: Inhibition of binding of Ig-HRP to solid phase Protein A
Procedure: Protein A (recombinant Protein A from Repligen, Cambridge, Mass.) diluted to 1 μg/ml in coating buffer (0.1M NaHCO3, pH 9.0) was incubated in the wells of a microtiter plate (100 μl per well) for 2 hours at 37° C. Uncoated surfaces of the wells were blocked by adding 340 μl PBSC (9 mM Na2 HPO4, 1 mM NaH2 PO4, pH 7.2, 154 mM NaCl, 1 mg/ml casein or ovalbumin, and 0.01% thimerosal), incubating the plate 1 hour at 37° C., and then washing the wells 3 times with PBSCT (PBSC plus 0.1% Tween 20 (polyoxyethylene sorbitan monolaurate)). Dilutions of rabbit immunoglobulin labeled with horseradish peroxidase (Ig-HRP) (Zymed Laboratories, Inc., South San Francisco, Calif.) in PBS (9 mM Na2 HPO4, 1 mM NaH2 PO4, pH 7.2, 154 mM NaCl) were incubated in the wells (100 μl per well) for 2 hours at 37° C. followed by washing 3 times with PBS. OPD substrate buffer (0.8 mg/ml o-phenylenediamine, 0.1M Na2 HPO4, 0.05M sodium citrate, pH 5.5, plus 0.15% (v/v) H2 O2) was then added to the wells (100 μl/well), and the resultant colored product was measured with a Titertek Multiskan plate reader using a 414 nm filter.
OPD substrate buffer was then added (100 μl/well), and the resulting colored product was measured at 414 nm in a Titertek Multiskan plate reader.
8. […] Then the inhibition assay using solid phase Protein A was performed as described above.

[2] = tested on: binding of rabbit Ig-HRP to solid phase C1q; assay: Inhibition of binding of Ig-HRP to solid phase C1q
Procedure: C1q (gift of Dr. Lawrence Potempa, Immtech International Inc., Evanston, Ill.) diluted to 10 μg/ml in coating buffer was placed in the wells of a microtiter plate (100 μl/well) and incubated for 2 hours at 25° C. The uncoated surfaces of the wells were blocked by adding 340 μl PBSC and incubating the plate for 1 hour at 25° C., followed by washing 3 times with PBSC. Dilutions of Ig-HRP in C1q buffer (50 mM Tris, pH 7.2, 27 mM NaCl, 1 mM CaCl2, 0.01% (wt/v) Thimerosal) were incubated in the wells (100 μl/well) for 1 hour at 25° C. followed by washing 3 times with C1q buffer. OPD substrate buffer was then added (100 μl/well), and the colored product was measured at 414 nm in a Titertek Multiskan plate reader.
C1q was coated onto the surface of the wells of a microtiter plate as described in Part C. […] OPD substrate buffer (100 μl/well) was then added and the colored product measured at 414 nm in a Titertek Mutiskan plate reader.

[3] = tested on: PAP binding to solid phase CBP2; assay: Elution or inhibition of PAP binding to the CBP2 column by solution peptide; set-up: species or system rabbit
Chain of PAP binding to solid phase CBP2 (P01870 whole entry): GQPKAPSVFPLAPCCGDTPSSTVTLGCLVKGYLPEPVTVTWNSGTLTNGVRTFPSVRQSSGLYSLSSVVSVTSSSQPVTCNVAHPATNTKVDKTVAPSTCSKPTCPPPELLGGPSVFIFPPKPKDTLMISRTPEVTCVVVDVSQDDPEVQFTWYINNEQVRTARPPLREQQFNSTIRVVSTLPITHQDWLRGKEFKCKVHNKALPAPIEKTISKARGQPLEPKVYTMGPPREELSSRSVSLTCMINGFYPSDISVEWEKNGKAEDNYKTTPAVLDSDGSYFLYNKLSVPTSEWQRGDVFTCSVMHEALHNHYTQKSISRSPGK
Procedure: An additional 6 ml of C1q buffer was used to wash the column followed by 3 ml of 2% (v/v) acetic acid and then with 6 ml of C1q buffer to completely wash the column.
The sample was then eluted with 21 ml C1q buffer followed by 3 ml of 2% (v/v) acetic acid and then 6 ml C1q buffer. The column fractions were assayed for the presence of peroxidase as described above in Part A, and the concentration of PAP was calculated from the standard curve data.
This was not the case, however, since similar concentrations were used for column elution as for the pre-incubation studies. […] Thus, the effect of aggregates, if they formed, was of little significance.

[4] = tested on: sensitized sheep erythrocytes (SRBCs), human serum as complement; assay: Sheep red blood cell lysis assay (SRBC assay); format: cell-based; conditions: highest concentration (1 mM) tested
[5] = tested on: pig aorta endothelial cells (PAECs), human serum; assay: Chromium release assay (PAEC assay); format: cell-based; conditions: highest concentration (1 mM) tested
Procedure: Culture plates (Falcon 24-well plates, Becton Dickinson, Lincoln Park, N.J.) were coated by addition of 0.5 ml/well of 2% gelatin (Type B, from bovine skin, Sigma Chemical Co.) diluted 1:10 in Hanks buffered salt solution (Gibco BRL, Grand Island, N.Y.), followed by incubation for 15 min at room temperature. The gelatin solution was removed, and 125×10^3 pig aorta endothelial cells (PAECs, Cell Systems, Kirkland, Wash.) in 2 ml of cell culture medium (CCM, Dulbecco's modified Eagle's medium (DMEM) with high glucose (Gibco BRL) containing 20% defined fetal bovine serum (FBS, HyClone Laboratories, Logan, Utah) that had been heat inactived for 30 min at 56° C., 1%(v/v) L-glutamine (200 mM, Gibco BRL) and penicillin G sodium (10,000 units/ml)/streptomycin sulfate (10,000 μg/ml in 0.85% saline, Gibco BRL)] were added per well. The plate was centrifuged in a model GS-6R Beckman table top centrifuge at 20×g for 2 min with the brake off to settle the cells onto the gelatin in a even monolayer, after which the plate was incubated at 37° C. in 5% CO2 -95% air. After 4 hours, cell attachment had occurred, and the CCM was removed and replaced with 2 ml of fresh CCM. In 2-4 days the PAECs had grown to 80-100% confluence and were used in the complement mediated chromium release assay.
The PAECs were washed 3 times with 1 ml of serum free medium (SFM), leaving the SFM on the cells for 5 min each time. Chromium radioisotope (^51 Cr, NaCrO4, Amersham Corp., Arlington Heights, Ill.) was diluted in SFM to give 40 μCi/ml, and 100 μl were added to each well of the PAEC culture plate. The plate was incubated for 2 hours at 37° C. in 5% CO2 -95% air. The wells were washed three times with 1 ml of SFM. Then, 1 ml of PBS was added to each well, and the plate was incubated at 37° C. for 30 min to help reduce ^51 Cr background.
The various peptide inhibitors (diluted in SFM) were added (300 μl/well) and incubated with the PAECs at 37° C. for 30 min. Undiluted human serum (HS, 100 μl) or 100 μl of heat inactivated human serum (HIHS) was added to each well, and the plate was incubated at 37° C. for 1 hour. Supernatant (200 μl) was removed from each well and added to 200 μl of scintillation cocktail (OptiPhase `Supermix`, Wallac Inc., Turku, Finland) previously added to each well of a 24-well polyethylene terephtalate reading plate (Wallac Inc.), and the plate was sealed with an acetate plate sealer (Dynatech Laboratories, Chantilly, Va.). The reading plate was placed on a shaker for 5 min to obtain a homogeneous mixture. Radioactivity (CPMs) of the wells was counted for 2 min using the 1450 MicroBeta PLUS plate reader (Wallac Inc.).
Total counts of ^51 Cr were determined from 200 μl aliquots taken from the wells to which 100 μl of 5% Triton X-100 (Sigma Chemical Co.) had been added. Total complement mediated lysis was determined from wells treated with HS alone, and background counts were determined from wells treated with HI-HS alone or with peptide alone (no HS). The average background was subtracted from all well counts, and the percent inhibition calculated as total lysis minus lysis with inhibitor/total lysis multiplied by 100. All experimental points were obtained in triplicate, and the data were analyzed in the same manner as the data from the SRBC assays.

[6] = same concentration range as CBP2

With “luteinizing hormone releasing hormone [LHRH, reference compound]” the “Protein A inhibitory activity” value [1, 6] was “no Protein A or C1q inhibitory activity”, the C1q inhibitory activity [2, 6] was “no Protein A or C1q inhibitory activity” and the “PAP binding to solid phase CBP2 after pre-incubation with peptide” value ([3]; 0.1 mM peptide, 1 hour 25° C., PAP 20 μg/ml) was “PAP binding to the column in the range normally observed”. The “elution of bound PAP from CBP2 column by peptide wash” value ([3]; 3 ml of 336.2 μg/ml CBP2 or equimolar LHRH) was “no significant elution of PAP”.
With “Ac-AEAKAKA-NH2 [AEK, Ac-Ala Glu Ala Lys Ala Lys Ala-NH2]” the “inhibitory activity in the SRBC assay” value [4] was “no inhibitory activity” and the “inhibitory activity in the PAEC assay” value [5] was “no inhibitory activity”.
In the case of “C1q: complement component C1q, gift of Immtech International, liquid phase positive control”, the IC50 ([2]; read-out: 50% inhibition concentration for liquid phase C1q inhibiting solid phase C1q) is reported as about 10 nM.
Substance “Protein A: recombinant Protein A from Repligen, positive control in solution phase [reference compound]” has an IC50 ([1]; Ig-HRP binding to solid phase Protein A, read-out: 50% inhibition concentration for solution phase Protein A) of 1 nM.
